Measurements: patent US7531320B2, “Modulation of β-catenin/TCF-activated transcription” (priority 2003, dated 2009)

Columns and labels:
[1] = tested on: cyclin D1 promoter; test: ChIP assay, cyclin D1 promoter in SW480 cells; assay type: cell-based, human; conditions: 25 μM
Procedure: FIG. 5. COMPOUND 1 inhibits the expression of cyclin D1. • A. Cyclin D1 levels are decreased with COMPOUND 1 treatment. Western blot analysis was performed on 25 μg of SW480 whole cell lysates treated for 4, 8, or 24 hours with either 25 μM of COMPOUND 1 or control (0.5% DMSO). Immunoblotting was performed using anti-Cyclin D1 antibodies (Santa Cruz Biotechnology Inc.). • B. In vivo occupancy of cyclin D1 and c-myc promoters by CBP and p300. […] ChIP assays were performed on promoter of c-myc from SW480 cells which was treated for 8 hours with COMPOUND 1 (25 μM) or control (0.5% DMSO). CBP (AC-26, a generous gift from Dr. David Livingston, Harvard University, Boston, Mass.) or p300 (C-20, Santa Cruz Biotechnology Inc.) specific antibodies were used to evaluate the promoter occupancy by CBP or p300 in presence of COMPOUND 1 or control (DMSO) treatment.
Formaldehyde cross-linking and chromatin immunoprecipitation assays of SW480 cells were performed as described previously (Barlev et al., “Acetylation of p53 activates transcription through recruitment of coactivators/histone acetyltransferases,” Mol. Cell 8:1243-54 (2001); El-Osta et al., “Analysis of chromatin-immunopurified MeCP2-associated fragments,” Biochem. Biophys. Res. Commun. 289:733-37 (2001); Shang et al., “Formation of the androgen receptor transcription Complex,” Mol. Cell 9:601-10 (2002)). […]

[2] = tested on: nuclear β-catenin in HCT116 cells; test: β-catenin immunofluorescence localization in HCT116 cells; assay type: cell-based, human; conditions: 25 μM, 24 hours, to cytoplasmic membrane
Procedure: FIG. 4. COMPOUND 1 decreases nuclear β-catenin • A. β-catenin immunofluorescence microscopy. Log phase SW480 (left) and HCT116 (right) cells were fixed and stained with either anti-β-catenin red (upper panel, A) or anti-CBP (upper panel, B) green. The center panel represents the superimposed β-catenin and CBP in SW480 (left) and HCT116 (right) cells. […] 25 μg of total protein from the cell extracts of SW480 cells with or without 24 hr treatment of COMPOUND1 was used for detection of cytosolic and nuclear β-catenin.
Immunofluorescence was used to examine the localization of CBP and β-catenin in SW480 and HCT116 cells treated with COMPOUND 1 (25 μM) or control (0.5% DMSO). Cells at log phase were seeded and after 24 hours, the cells were treated with COMPOUND 1 or control. 24 hours post treatment, cells were fixed. The coverslips were incubated with antibodies raised against CBP (A-22) (Santa Cruz Biotechnology) and β-catenin (Transduction Laboratories), respectively. The slides were examined using a Nikon PCM 2000 Laser Scanning Confocal Microscope after the secondary antibodies conjugated to either FITC or TRITC (Jackson ImmunoResearch, Westgrove, Pa.) were applied.

Compound: O=C1C(Cc2ccc(O)cc2)N2C(=O)CCN(C(=O)NCc3ccccc3)C2CN1Cc1cccc2ccccc12 (centres unmarked) [COMPOUND 1]
- Association of CBP with the cyclin D1 promoter [1]: completely and selectively blocks
- Subcellular distribution of β-catenin [2]: redistribution of β-catenin
